Results on 4 substances are retold here after patent US9884012B2, “Use of PEDF-derived polypeptides for promoting muscle or tendon regeneration or arteriogenesis” (MacKay Memorial Hospital, priority 2012, dated 2018).

Marks after values point to notes of the source that are not given here.

One test has as its system ischemic hindlimbs. Kind of test: hindlimb ischemia model, laser Doppler perfusion imaging of limb blood perfusion. It counts as in vivo, C57BL/6 wild-type mice. The procedure:
(§1) 6-week-old female C57BL/6 wild-type mice were anesthetized by an intraperitoneal injection of a mixture of zoletil (6 mg/kg) and xylazine (3 mg/kg). Hair was removed from the hindquarter with a depilating cream. To establish hindlimb ischemia, unilateral external iliac and femoral arteries and veins were ligated, cut, and excised. After surgery, the mice were randomly assigned to several experimental groups (n=6, each group) and treated as follows. In the blank control group, the mice were treated with 50 μl of blank alginate gel, whereas in the bolus control group, the mice received the bolus formulation containing 29-mer. In the PEDF peptide/alginate gel treatment groups, the mice received 50 μl of the sustained-release formulation, which comprised either 29-mer, 24-mer, or 20-mer. Additionally, in a PEDF 18-mer control group, mice were treated with a sustained-release formulation containing a PEDF 18-mer peptide. Treatments were applied by way of a single intramuscular injection to the gracilis muscle immediately after femoral artery and vein excision operation. The incision was closed after the wound was irrigated with sterile saline.
A laser Doppler perfusion imaging (LDPI) analyzer (Moor Instruments, USA) was used to quantify hindlimb blood perfusion before surgery (pre OP), immediately after surgery (post OP), and over time after surgery. To minimize vasoconstriction by anesthetic heat loss, animals were kept on a heating plate at 37° C. for 5 min before measurement. Representative LDPI images illustrating the blood perfusion of ischemic hindlimbs over a time period of 4 weeks were provided in FIG. 2 in which dark blue color represents low blood flow. Blood perfusion is expressed as LDPI index representing the ratio of operated (ischemic) versus non-operated (non-ischemic) limb blood flow of the same mouse, and the results were summarized in FIG. 3 and Table 1 (n 6).

The subject of another test is tibialis anterior muscle. Kind of test: hindlimb ischemia model, tibialis anterior muscle necrosis/fibrosis and centrally nucleated fibers. It counts as in vivo, C57BL/6 wild-type mice. The conditions noted are these: two weeks after surgery, sustained-release formulation (Bolus: bolus 29-mer). The procedure:
The gracilis, adductor magnus, soleus, and tibialis muscles were fixed in 4% paraformaldehyde, dehydrated with graded ethanol series, and paraffinized. Fixed samples were de-paraffinized in xylene and rehydrated in a graded series of ethanol. Tissues were sliced into 5-μm sections. General histology was performed using H&E dye.
To ascertain the number of centrally nucleated muscle fibers, sections were stained with H&E and then photographed as described above. At least 100 stained fibers were randomly chosen from each photo. Muscle fibers were judged centrally nucleated if one or more nuclei were not located at the periphery of the fiber. The data were expressed as a % of the total number of muscle fibers counted. Results were evaluated from 6 sections per muscle section, and 10 mice at each group.
as §1
In most hindlimb ischemia models, tissue necrosis generally occurs in the muscles below the knee. For example, tibialis anterior muscle, which is distant to the gracilis muscle where the treatment was administered, often undergoes extensive necrosis with regeneration after femoral artery excision. The intensity of Masson's trichrome blue color staining depended on the content of collagen fibers in the investigated tissue, and fibrosis is the result of necrosis. […] Results from representative samples are illustrated in FIGS. 4A and 4B.
Statistical analyses regarding injured area (necrotic area+fibrotic area) and numbers of centrally nucleated fibers were also performed at two weeks after the surgery, and the results were summarized in Table 2. The injured area is expressed as the percent of total stained area (%), and the centrally nucleated fibers is expressed as the total number of muscle fibers counted (%).

In test [1] the test system is adductor magnus muscle arterioles. In words: hindlimb ischemia model, arteriole density (α-SMA) in adductor magnus muscle. It counts as in vivo, C57BL/6 wild-type mice. The conditions noted are these: two weeks after surgery, sustained-release formulation (Bolus: bolus 29-mer). The procedure: The small artery densities (α-SMA positive cells surrounding the whole circumference of the vessel) were measured and images were taken from 10 randomly-selected areas of adductor magnus muscle (200× magnification) in each sample, and blinded quantification was performed in triplicate by manually counting within each section; values from five sections were then averaged and expressed as arteriole density per mm^2.
as §1
To investigate the arteriogenic effect of the present sustained-release formulation, adductor magnus muscles (located at the same level as femoral artery excision and in which arteriogenesis responsible for establishing collateral circulation is expected to be found) were harvested from animals in each experimental condition, two weeks after the surgery. Arterioles in muscle cross sections were identified by immunohistological staining for vascular smooth muscle cells (α-SMA; brown), and nuclei were labeled with hematoxylin; representative photographs were provided in FIG. 5. Quantitative analysis was also performed and the results were summarized in Table 3, and the data were expressed as α-SMA-positive arterioles per mm^2 in the peri-injury region.

Test [2] deals with aortic ring explants. Kind of test: rat aortic ring sprouting assay (ex vivo neovessel sprouting). It counts as cell-based. The conditions noted are these: aortic rings cultured with PEDF peptide, in words.
For test [3], the system named is aortic ring explants. Described as above. It counts as cell-based. The conditions noted are these: day 4, 50 ng/ml PEDF peptide, 50 ng/ml VEGF-A, 20 ng/ml FGF-2, MCDB131, 1% FBS, Matrigel. How it is done: To further confirm the neovessel development promoted by PEDF peptides, rat aortic ring sprouting assay was performed. Thoracic aortas were removed from euthanized rats and gently stripped of peri-aortic fibroadipose tissue. Aortas were sectioned into about 2-mm length rings, which were then embedded in a growth factor-reduced Matrigel. Gels containing the aortic rings were polymerized in 12-well plates incubated at 37° C. for 30 minutes. 1 ml of MCDB131 medium supplemented with 100 units/ml penicillin and […] streptomycin, 1% FBS, and a supplemental agent (50 ng/ml VEGF-A, 20 ng/ml FGF-2, or 50 ng/ml 29-mer, 24-mer, 20-mer, Mo 29-mer, Mo 20-mer, 25-mer, or 18-mer) were added to the Matrigel-containing explants. The cultures were propagated at 37° C. in a humidified incubator for up to 4 days, with media changes every other day. Neovessel sprouting was assessed until day 4 using an inverted microscope platform (Leica) with bright-field optics; representative photographs were provided in FIG. 6. Quantification of neovessel sprouting was assessed using Image-Pro Plus 6.0 software (Dendrites program). The experiment was repeated in triplicate.

The test system of a further test is tendon stem cells (TSCs). In words: TSCs proliferation assay (BrdU labeling) in vitro. It counts as cell-based, New Zealand White rabbits. To be noted: TSCs passage 4; 50 nM peptide, 5% FBS, 24 hours; BrdU pulse-labeling. The procedure: New Zealand White rabbits (6-8 months old, 3.0-4.0 kg) were used in this study. Achilles tendons were removed from the rabbits by cutting through their bony attachments. The tendon sheath was stripped away and the core portion of the tendons was minced into small fragments. Each 100 mg of fragment was then digested in a solution containing 3 mg/mL of type I collagenase and 4 mg/mL of dispase in 1 ml Dulbecco's Modified Eagle Medium (DMEM-high glucose) at 37° C. for 2 hours. The resultant cell suspension was centrifuged at 1,000 rpm for 15 minutes to obtain a cell pellet which was then resuspended in a growth medium consisting of DMEM supplemented with 10% heat inactivated fetal bovine serum (FBS), 100 μM 2-mercaptoethanol, and 100 U/ml penicillin and 100 μg/ml streptomycin. For passage, near-confluent cells were harvested with 0.25% trypsin and then 1×10^5 subcultured cells were further cultured in medium.
The TSCs at passage 4 were seeded at gelatin-coated slide in a 6-well plate at a density of 2×10^5 cells per well and cultured in growth medium (DMEM+10% FBS) for 24 hours before being replaced by a basal growth medium with 5% FBS only (control group) or with 5% FBS plus an additional 50 nM of PEDF-derived peptide (i.e., 29-mer, 24-mer, 20-mer, 18-mer, Mo 29-mer, or Mo 20-mer) for 24 hours. For BrdU labeling assay, BrdU (final concentration, 10 μM) was added to the culture for 4 hours. After fixing with 4% paraformaldehyde, cells were exposed to cold methanol for 2 minutes, and then treated with 1 N HCl at RT for 1 hour before performing immunofluorescence. The phenotype of passage 4 TSC was determined by immunocytochemistry of nucleostemin and type I collagen. Almost all of expanded TSCs were nucleostemin and type I collagen-double positive cells.
It has been reported that during the tendon healing process, tendon stem cells (TSCs) would proliferate and differentiate into tenocytes. To investigate whether present PEDF peptides would induce the proliferation of TSCs in vitro, tendons stem cells were isolated and cultured as described in the “Materials and Methods” section. The purity of TSCs was confirmed by a TSC marker, nucleostemin, as well as the expression of type I collagen by TSCs; together, these analyses indicated a TSC purity of near 100% (data not shown). The proliferation of TSCs was confirmed by BrdU pulse-labeling for 2 hours. Quantitative analysis of the level of BrdU-positive cells was performed as described above, and the results were summarized in Table 8.
On the technique in general: Incorporation of labelled thymidine or its analogues reports DNA synthesis.

“EQRTESIIHRALYYDLIS [18-mer, control PEDF peptide without the SLGA residues, reference compound]”: in the test with ischemic hindlimbs (7 days after surgery, 50 μl sustained-release alginate gel formulation, 10 μM peptide (Bolus: bolus formulation of 29-mer), single intramuscular injection to gracilis muscle), the “Ischemic/Non-ischemic Perfusion Ratio (%) 7 days” value is 23.8 ± 4.5%. Also, the “Ischemic/Non-ischemic Perfusion Ratio (%) 14 days” value in the test on ischemic hindlimbs (14 days after surgery, sustained-release formulation (Bolus: bolus 29-mer), single intramuscular injection) amounted to 30.3 ± 0.94%. Besides, the “Ischemic/Non-ischemic Perfusion Ratio (%) 21 days” value in the test with ischemic hindlimbs (21 days after surgery, sustained-release formulation (Bolus: bolus 29-mer), single intramuscular injection) was determined as 46.8 ± 4.3%. Also, the “Ischemic/Non-ischemic Perfusion Ratio (%) 28 days” value in the test with ischemic hindlimbs (28 days (four weeks) after surgery, sustained-release formulation (Bolus: bolus 29-mer), single intramuscular injection) came out at 52.8 ± 7.4%. Besides, the “Ischemic/Non-ischemic Perfusion Ratio (%) Pre OP” value in the test on ischemic hindlimbs (before surgery (baseline), LDPI) was found to be 104.5 ± 2.5%. In the test with ischemic hindlimbs (immediately after surgery, LDPI), the “Ischemic/Non-ischemic Perfusion Ratio (%) Post OP” value is on record as 7.5 ± 0.67%. The “blood perfusion as compared with blank control” value in the test with ischemic hindlimbs (over 4 weeks after surgery, in words) is on record as “did not exhibit improved blood perfusion”. Further, in the test on tibialis anterior muscle, the “Centrally nucleated fibers (%)” value is 20.5 ± 3.3% and the “Injured Area (%) (necrotic area + fibrotic area, percent of total stained area)” value was determined as 78.5 ± 5.1%. The “Arteriole Density per mm^2 (α-SMA-positive arterioles)” value in test [1] was 4.0 ± 0.58 per mm^2. Besides, the “neovessel phenotype by dual immunofluorescence (α-SMA / isolectin B4)” value in the test on aortic ring explants [2] is given as “barely detected”.

Regarding “SLGAEHRTESVIHRALYYDLITNPDIHST [Mo 29-mer, synthetic peptide derived from mouse PEDF]”, the “Neovessel Sprouting Fold” value in the test on aortic ring explants [3] was 6.1* fold of untreated aortic ring. The “BrdU Labeling Index (%)” value in the test on tendon stem cells (TSCs) was determined as 33.2 ± 6.6 %.

On to “FGF2: well-known angiogenic factor used as positive control, 20 ng/ml [reference compound]”, for which the “Neovessel Sprouting Fold” value in the test on aortic ring explants [3] is on record as 3.5* fold of untreated aortic ring; in the test on aortic ring explants [3] (listed as FGF-2), ~3.5 fold of untreated aortic ring.

Take “SLGAEHRTESVIHRALYYDL [Mo 20-mer, synthetic peptide derived from mouse PEDF]”: the “Neovessel Sprouting Fold” value in the test with aortic ring explants [3] is listed as 6.4* fold of untreated aortic ring. Moreover, the “BrdU Labeling Index (%)” value in the test with tendon stem cells (TSCs) came out at 31.8 ± 3.1 %.
